Molecular target: BRCA1/BARD1 (Homo sapiens, UniProt P38398+Q99728)
Experiment: ReBiL luminescence protein interaction assay, BRCA1/BARD1 negative control
Conditions: dosing above 10 μM, 10% serum

Chain of BRCA1/BARD1 (P38398 whole entry, species assumed): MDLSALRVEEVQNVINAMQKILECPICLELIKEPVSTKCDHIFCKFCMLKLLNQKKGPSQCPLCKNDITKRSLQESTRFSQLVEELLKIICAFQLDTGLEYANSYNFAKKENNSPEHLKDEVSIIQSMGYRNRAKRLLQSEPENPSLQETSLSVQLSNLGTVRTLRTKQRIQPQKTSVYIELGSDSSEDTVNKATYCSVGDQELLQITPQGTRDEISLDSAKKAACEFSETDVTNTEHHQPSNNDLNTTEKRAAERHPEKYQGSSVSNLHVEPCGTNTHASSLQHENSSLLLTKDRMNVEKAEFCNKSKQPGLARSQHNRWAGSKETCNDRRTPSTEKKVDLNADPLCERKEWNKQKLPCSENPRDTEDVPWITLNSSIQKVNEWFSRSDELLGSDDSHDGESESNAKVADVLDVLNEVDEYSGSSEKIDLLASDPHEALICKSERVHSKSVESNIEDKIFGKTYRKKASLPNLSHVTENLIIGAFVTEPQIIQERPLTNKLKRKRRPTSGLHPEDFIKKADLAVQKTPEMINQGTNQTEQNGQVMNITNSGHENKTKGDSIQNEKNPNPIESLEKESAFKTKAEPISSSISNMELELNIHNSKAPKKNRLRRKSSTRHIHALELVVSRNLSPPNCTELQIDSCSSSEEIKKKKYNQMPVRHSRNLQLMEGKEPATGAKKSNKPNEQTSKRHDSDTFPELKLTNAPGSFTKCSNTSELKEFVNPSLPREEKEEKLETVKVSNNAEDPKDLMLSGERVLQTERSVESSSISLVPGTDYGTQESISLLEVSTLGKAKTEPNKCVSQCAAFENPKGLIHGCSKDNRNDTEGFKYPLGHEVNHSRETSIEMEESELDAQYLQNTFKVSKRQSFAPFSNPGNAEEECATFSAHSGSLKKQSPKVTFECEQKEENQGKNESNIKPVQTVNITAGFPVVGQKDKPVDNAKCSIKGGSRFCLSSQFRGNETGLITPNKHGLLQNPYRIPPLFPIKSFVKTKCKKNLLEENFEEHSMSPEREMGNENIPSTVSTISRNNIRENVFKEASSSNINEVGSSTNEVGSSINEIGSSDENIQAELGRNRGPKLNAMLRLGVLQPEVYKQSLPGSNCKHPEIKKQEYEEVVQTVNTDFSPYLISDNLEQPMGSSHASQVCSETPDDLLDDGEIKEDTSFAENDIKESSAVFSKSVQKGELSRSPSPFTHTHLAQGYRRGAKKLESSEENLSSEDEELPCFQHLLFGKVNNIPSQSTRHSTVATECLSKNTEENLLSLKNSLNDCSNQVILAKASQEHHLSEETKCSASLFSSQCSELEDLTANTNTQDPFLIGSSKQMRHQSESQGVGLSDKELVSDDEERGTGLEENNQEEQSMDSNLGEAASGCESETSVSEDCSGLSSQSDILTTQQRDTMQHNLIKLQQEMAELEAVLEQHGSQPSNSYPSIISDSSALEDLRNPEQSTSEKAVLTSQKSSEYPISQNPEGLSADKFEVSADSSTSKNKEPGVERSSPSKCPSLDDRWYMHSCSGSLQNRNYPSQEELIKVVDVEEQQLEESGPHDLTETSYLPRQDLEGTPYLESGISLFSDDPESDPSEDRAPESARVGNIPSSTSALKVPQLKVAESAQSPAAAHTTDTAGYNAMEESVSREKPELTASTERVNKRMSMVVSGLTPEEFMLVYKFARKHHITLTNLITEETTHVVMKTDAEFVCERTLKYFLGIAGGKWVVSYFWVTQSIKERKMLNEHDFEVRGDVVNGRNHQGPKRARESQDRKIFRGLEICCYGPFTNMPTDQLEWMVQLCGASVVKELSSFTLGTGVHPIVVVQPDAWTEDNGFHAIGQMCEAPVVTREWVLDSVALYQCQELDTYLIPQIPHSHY
Chain of BRCA1/BARD1 (Q99728 whole entry, species assumed): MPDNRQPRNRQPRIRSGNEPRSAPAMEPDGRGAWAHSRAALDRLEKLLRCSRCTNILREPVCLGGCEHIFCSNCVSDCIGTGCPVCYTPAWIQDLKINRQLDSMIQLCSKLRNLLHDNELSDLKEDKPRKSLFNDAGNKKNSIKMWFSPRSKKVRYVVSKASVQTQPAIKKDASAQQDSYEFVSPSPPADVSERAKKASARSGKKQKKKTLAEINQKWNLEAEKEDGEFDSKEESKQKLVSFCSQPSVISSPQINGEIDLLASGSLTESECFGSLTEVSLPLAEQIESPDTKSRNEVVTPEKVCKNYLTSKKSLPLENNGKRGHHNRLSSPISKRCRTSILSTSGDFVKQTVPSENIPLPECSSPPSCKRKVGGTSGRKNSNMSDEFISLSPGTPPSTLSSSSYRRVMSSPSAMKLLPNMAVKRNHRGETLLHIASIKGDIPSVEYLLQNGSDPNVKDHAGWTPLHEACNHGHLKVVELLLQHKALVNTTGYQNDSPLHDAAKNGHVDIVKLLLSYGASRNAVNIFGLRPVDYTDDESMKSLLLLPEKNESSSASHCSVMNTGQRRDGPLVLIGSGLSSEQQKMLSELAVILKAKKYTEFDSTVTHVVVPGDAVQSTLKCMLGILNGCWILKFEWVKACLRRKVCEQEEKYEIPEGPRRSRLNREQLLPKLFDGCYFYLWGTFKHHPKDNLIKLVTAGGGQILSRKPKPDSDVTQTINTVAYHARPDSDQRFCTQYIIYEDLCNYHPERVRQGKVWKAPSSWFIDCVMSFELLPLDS

COc1ccc(C2=N[C@@H](c3ccc(Cl)cc3)[C@@H](c3ccc(Cl)cc3)N2C(=O)N2CCNC(=O)C2)c(OC(C)C)c1 [Nutlin-3a]
ReBiL signal suppression in BRCA1/BARD1 cell line above 10 μM: nonspecific activity
